The values that follow come from article PMC11180795 (Frontiers in Pharmacology, 2024).

Data set [1] relates to NO production. Further details: method as in Liu et al., 2016. To be noted: ref Liu et al., 2016; read-out: IC50, inhibition of NO production; cited from earlier work.
In data set [2] the test system is RAW 264.7 macrophage cells. Further details: method as in Sukandar et al., 2023. To be noted: final concentration of 100 μM, ref Sukandar et al., 2023; cited from earlier work.
Data set [3] in a line: Cytotoxicity MTT assay on RAW 264.7 cells. The note with it: mouse, RAW 264.7 macrophage cells, 48 h incubation, read-out: IC50, cytotoxic effect on RAW264.7 cells. It counts as cell-based, Murine. The protocol:
Murine macrophage RAW 264.7 cell line obtained from the American Type Culture Collection (Rockville, MD, United States) was maintained in DMEM supplemented with 10% fetal calf serum (FCS) and 1% penicillin/streptomycin/fungizone (PSF) under standard cell culture conditions at 37°C and 5% CO2 in a humidified environment.
The cytotoxic effect of compounds on RAW 264.7 cells was assessed using the 3-(4, 5-dimethylthiazol-2-yl)-2, 5-diphenyl tetrazolium bromide (MTT) assay as established by Mosmann ([Mosmann, 1983]) with slight modifications. Briefly, cells were seeded at a density of 1 × 10^5 cells/mL (100 µL) in 96-well microtitre plates and incubated at 37°C and 5% CO2 in a humidified environment. After 24 h incubation, 100 µL of compounds (at concentration ranged from to 250 μM–1.95 µM) were added to the wells containing cells and further incubated for 48 h in a CO2 incubator. A suitable control (untreated cells) was included and doxorubicin was used as a positive reference. Thereafter, the medium in each well was aspirated from the cells, which were then washed with PBS, and finally fresh medium (200 µL) was added to each well. Then, 30 µL of MTT (5 mg/mL in PBS) was added to each well and the plates were incubated at 37°C for 4 h. The medium was aspirated from the wells and DMSO was added to solubilize the formed formazan crystals. The absorbance was read at 570 nm (SpectraMax 190, Molecular devices). The percentage of cell inhibition was calculated with reference to the control (untreated cells taken as 100% viability). Then, the IC50 values of plant compounds showing more than 50% cell growth inhibition were calculated by plotting the percentage inhibition against the concentration.
For orientation: Formazan colour is commonly taken as a measure of viable cells.

Consider garcinoxanthone B, for which the IC50 in data set [1] was 11.3 µM. On to `CC12CCC3C1C(c1c(cc(O)c(C(=O)c4ccccc4)c1O)O2)C3(C)C` (stereo not shown) [clusiacyclol A], for which, in data set [2], the NO inhibition entry is “over 85%” and the “cytotoxicity (in words)” value is “without obvious cytotoxicity”.

On to garcinoxanthone C, for which the IC50 in data set [1] is 18 µM.

On to `CC(C)=CCCC1(C)C=Cc2c(cc3oc4c(O)ccc(O)c4c(=O)c3c2O)O1` (stereo not shown) [Compound 3, Smeathxanthone B], for which the melting point lay in the range of 187 to 189 °C. Moreover, the IC50 at 48 h in data set [3] is over 100 µM.

As to `COc1cccc2c1C(=O)c1c(O)c3c(c(O)c1C2=O)C[C@@](O)(C(=O)CO)C[C@@H]3O[C@H]1C[C@H](N)[C@H](O)[C@H](C)O1` [Doxorubicin, doxorubicin, reference compound], the IC50 at 48 h in data set [3] worked out at 4.63 µM.

Usually IC50 stands for the concentration needed to halve the response being measured. By melting point is commonly meant the temperature, or range, at which the solid turns liquid.
